Test results from PubChem BioAssay (NCI).
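Where inhibition never reached the appropriate level, the endpoint shown equals the highest concentration tested. Otherwise, values were interpolated linearly from a five-concentration, 48-hour dose response in 96-well plates. TGI denotes the concentration required for complete inhibition of growth.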

Experiments:
Assay in all cases: NCI-60 cell line screen, 48 h
A498 renal = system: A498 renal
A549 NSCLC = system: A549 NSCLC
ACHN renal = system: ACHN renal
CAKI-1 renal = system: CAKI-1 renal
COLO 205 colon = system: COLO 205 colon
DU-145 prostate = system: DU-145 prostate
HS 578T breast = system: HS 578T breast
NCI-H23 lung = system: NCI-H23 lung
SF-295 CNS = system: SF-295 CNS
SNB-75 CNS = system: SNB-75 CNS
UO-31 renal = system: UO-31 renal

SMILES	TGI (A498 renal)	TGI (A549 NSCLC)	TGI (ACHN renal)	TGI (CAKI-1 renal)	TGI (COLO 205 colon)	TGI (DU-145 prostate)	TGI (HS 578T breast)	TGI (NCI-H23 lung)	TGI (SF-295 CNS)	TGI (SNB-75 CNS)	TGI (UO-31 renal)
NCCCC(N)C(=O)O (stereo not drawn)	> 100 µM	> 100 µM	> 100 µM	> 100 µM	> 100 µM	> 100 µM	> 100 µM	> 100 µM	> 100 µM	> 100 µM	> 100 µM
COC(c1ccc(C(C)(C)C)cc1)(c1ccc(C(C)(C)C)cc1)c1cc(C(O)(c2cc(C(OC)(c3ccc(C(C)(C)C)cc3)c3ccc(C(C)(C)C)cc3)c(C)cc2C)c2cc(C(OC)(c3ccc(C(C)(C)C)cc3)c3ccc(C(C)(C)C)cc3)c(C)cc2C)c(C)cc1C	> 100 µM	> 100 µM	–	> 100 µM	> 100 µM	> 100 µM	> 100 µM	> 100 µM	> 100 µM	> 100 µM	> 100 µM
CN1C(=O)CN(NC(=O)C2=C(O)c3ccc(Br)cc3S(=O)(=O)N2)C1=S	> 100 µM	> 100 µM	> 100 µM	> 100 µM	> 100 µM	> 100 µM	> 100 µM	> 100 µM	> 100 µM	–	> 100 µM
CCOC(=O)c1c(SCCN2CCCC2)n(-c2ccccc2)c(=S)n(-c2ccccc2)c1=O	22.5 µM	14.6 µM	3.17 µM	5.23 µM	3.53 µM	3.11 µM	> 100 µM	27.4 µM	> 75.7 µM	19.5 µM	–
O=C(O)Cc1ccc2nc(COC(=O)c3ccccc3)sc2c1	> 100 µM	> 100 µM	> 100 µM	> 100 µM	> 100 µM	> 100 µM	> 100 µM	> 100 µM	> 100 µM	> 100 µM	> 100 µM
O=C(OCc1ccccc1)OOC(=O)OCc1ccccc1	> 100 µM	> 100 µM	> 100 µM	> 100 µM	> 100 µM	–	–	> 100 µM	> 100 µM	> 100 µM	> 100 µM
C[C@@H]1C[C@H](O)[C@]2(O)O[C@@H]3C[C@@]4(C=O)[C@@H](CC=C5[C@@H]4CC[C@]4(C)[C@@H](C6=CC(=O)OC6)CC[C@]54O)C[C@H]3O[C@@H]2O1	0.0627 µM	0.097 µM	0.0821 µM	0.0722 µM	1.94 µM	0.0384 µM	0.191 µM	0.0207 µM	0.627 µM	0.916 µM	0.153 µM
O=C1C(C=NCCc2c[nH]c3ccccc23)C(C(F)(F)F)=NN1c1nc2ccccc2s1 (stereo not drawn)	42.1 µM	> 100 µM	83.5 µM	> 100 µM	34 µM	79.5 µM	> 100 µM	> 100 µM	66.5 µM	> 100 µM	> 100 µM
COc1ccc2c(c1)C(=O)c1ccccc1C2	> 100 µM	> 100 µM	> 100 µM	> 100 µM	> 100 µM	35 µM	> 100 µM	> 100 µM	> 100 µM	63.5 µM	> 100 µM
CCN(CC)CCCn1c(=O)c2cccnc2n2c3c(=O)n(C)c(=O)n(C)c3nc12	–	> 100 µM	> 100 µM	> 100 µM	> 100 µM	> 100 µM	> 100 µM	> 100 µM	> 100 µM	> 100 µM	> 100 µM
CC(C)c1c(P(=O)(c2ccccc2)c2ccccc2)n(C)c2ccccc12	> 100 µM	> 100 µM	> 100 µM	–	> 100 µM	> 100 µM	> 100 µM	> 100 µM	> 100 µM	> 100 µM	> 100 µM
CCn1c(=O)c2c3cc(O)ccc3oc2c2ccc(O)cc21	55.5 µM	86.9 µM	66.1 µM	> 100 µM	43.9 µM	> 100 µM	> 100 µM	> 100 µM	> 100 µM	> 100 µM	46.6 µM
O=C1C(Br)=Cc2c(Cl)sc(Cl)c21	52.1 µM	> 72.9 µM	9.83 µM	8.99 µM	23.6 µM	18 µM	> 93.8 µM	30.6 µM	> 66.4 µM	30.4 µM	9.14 µM
N#Cc1c(OCCF)c2ccccc2n2c1nc1ccccc12	> 100 µM	> 100 µM	> 100 µM	> 100 µM	> 100 µM	> 100 µM	> 100 µM	> 100 µM	> 100 µM	> 100 µM	> 100 µM
CO/N=C1/c2sccc2[C@H](NC(=O)CNC(=O)OC(C)(C)C)[C@@H]1O	> 100 µM	> 100 µM	–	> 100 µM	> 100 µM	> 100 µM	> 100 µM	> 100 µM	> 100 µM	> 100 µM	> 100 µM
O=C(O[C@H](/C=C/c1ccccc1)P1(=O)N(Cc2ccccc2)[C@@H]2CCCC[C@H]2N1Cc1ccccc1)c1ccccc1	> 100 µM	> 100 µM	> 100 µM	6.93 µM	5.08 µM	–	> 100 µM	7.43 µM	> 100 µM	–	> 100 µM
CN(O)C(=O)Cc1ccc(OCc2cccc(Cl)c2)cc1	94.3 µM	> 100 µM	> 100 µM	> 100 µM	> 100 µM	> 100 µM	> 100 µM	> 100 µM	> 100 µM	> 100 µM	> 100 µM
CCN(CCCN(CC)C(=O)N[C@@H](Cc1ccccc1)C(=O)NC)C(=O)N[C@@H](Cc1ccccc1)C(=O)NC	> 100 µM	> 100 µM	> 100 µM	> 100 µM	> 100 µM	> 100 µM	> 100 µM	> 100 µM	> 100 µM	–	> 100 µM
CC1CC(C#N)=C2NCCCCN2C1=O (stereo not drawn)	–	> 100 µM	–	> 100 µM	> 100 µM	> 100 µM	> 100 µM	> 100 µM	> 100 µM	> 100 µM	> 100 µM
N#CSCc1cccc(Nc2cc(=O)[nH]c(=O)[nH]2)c1	> 100 µM	> 100 µM	> 100 µM	> 100 µM	> 100 µM	–	> 100 µM	> 100 µM	> 100 µM	> 100 µM	> 100 µM
CC(=O)Nc1ccc(Cl)c(Cl)c1	–	> 100 µM	> 100 µM	–	> 100 µM	–	–	> 100 µM	> 100 µM	> 100 µM	> 100 µM
